Test results as given in patent publication US9474749B2 (priority 2004, dated 2016).

Assays:
[1] = test system: SH-SY5Y cells; experiment: M6G-induced NO release from SH-SY5Y cells; format: cell-based, human; settings: 1 hour pre-treatment, 1 μM M6G
Description: The production of NO in SH-SY5Y cells was detected using the Apollo 4000 Free Radical Analyzer (World Precision Instruments). SH-SY5Y cells were trypsinized and cultured in a 6-well plate for 48 hours. An L-shaped amperometric NO-specific probe was connected to the Apollo Analyzer and calibrated using a SNAP+CuCl2 solution, which releases calculable amounts of NO. […] At the end of the treatment time-point, the media was removed and replaced with PBS warmed in a 37° C. bath, which is non-reactive with the probe. The probe was inserted about 1.5 mm above the cells and allowed to equilibrate for 5 minutes. […] The probe was monitored in real-time for the production of NO “spikes.” NO data was recorded using Free Radical Analyzer (World Precision Instruments). Cells were then discarded.

[2] = test system: human saphenous veins; experiment: NO release from human saphenous veins; settings: 10^−6 M CTOP 10 minutes before morphine
[3] = test system: mu3 opiate receptor; settings: 10^−6 M CTOP 10 minutes prior
Description: In addition, the cells were either incubated with or without 10^−6 M CTOP 10 minutes prior to adding M6G.

[4] = test system: SK-N-SH neuroblastoma cell line; format: cell-based, human
Description: Cell viability was determined via Trypan blue exclusion. An inverted light microscope (Nikon) with a phase-contrast filter was used to observe the cells. Pictures of the cells were taken via a digital camera (Optronix) attached to the microscope ocular. Images were uploaded onto ImagePro Plus Software (Applied Biosystems), where cell viability was calculated based on both the number of cells covering the field and the cells that present as dead from the stain. In addition, ImagePro Plus was used for determining cellular morphology. The area and perimeter were found and used in the formula (4π*Area)/(Perimeter)^2, resulting in a value between 0 (a straight line) and 1 (a perfect circle).

[5] = test system: 20S Proteasome X (β5) Subunit; experiment: 20S proteasome X subunit protein (Western blot); format: cell-based, human; settings: rotenone
Description: (§1) To determine protein concentrations, protein was harvested using the following buffer: 20 mM Hepes (Sigma), 100 mM NaCl (Fisher), 10 mM NaF (Sigma), 1% Triton X-100 (Sigma), 1 mM sodium orthovanadate (Sigma), 10 mM EDTA (Sigma), pH 7.4, 0.1% protease inhibitor cocktail (Sigma), and ddH2O. Homogenized samples were spun in an ultracentrifuge at 10,000G for 20 minutes at 4° C. Concentration was determined via the Bradford assay (Bio-Rad) using bovine serum albumin (BSA, Sigma) for standard curve. To eliminate any potential pipetting error, samples and standards were read in triplicate.
(§2) Western blotting was performed as follows. SDS-polyacrylamide gels (12% for separation and 5% for stacking) were made using the Mini Trans-Blot Cell (Bio-Rad). Based on the concentrations from the protein concentration determination assay, the proteins were mixed with 2× Protein Loading Buffer (0.2M DTT) for a final volume of 24 μL. Tris-Glycine Electrophoresis Buffer (1×) was used in SDS-PAGE, and proteins were separated at constant amperage (35 mA).
(§3) Subsequent protein transfer to a nitrocellulose membrane involved use of the Mini Trans-Blot Cell apparatus run at constant voltage (100V) for 40 minutes. […]
(§4) Substrate (Pierce) was administered as a means of stimulating chemiluminescence. Blots were developed and subsequently analyzed for relative band intensity using Gel-Pro software (Applied Biosystems).

[6] = test system: 20S proteasome; experiment: Activity of the whole 20S proteasome (fluorometric); format: cell-based, human; settings: rotenone 30 nM; morphine 5 μM
Description: (§5) Proteasome function assays were performed in an effort to examine the modulation in levels of protein degradation. Fluorometric assays were performed for both the chymotrypsin activity of the 26S proteasome as well as activity of the whole 20S proteasome using procedures adapted from Kotamraju et al. (Proc. Natl. Acad. Sci. USA, 100:10653-8 (2003)). Excitation at 365 nm and emission at 460 nM of the fluorogenic compound, […] (AMC), were measured using a Spectrofluoroscence Detector (McPherson).

[7] = test system: NMDA NR1 Subunit; experiment: NMDA NR1 subunit mRNA expression (RT-PCR); format: cell-based, human
Description: (§6) Isolation of total RNA was performed via RNA MiniPrep Kit (QIAGEN). Concentration of RNA was determined via GeneQuant II Spectrophotometer (Pharmacia Biotech) by multiplying A260 value with dilution factor and nucleic acid constant (0.04). Agarose gel electrophoresis (1%) was used to check for RNA quality.
(§7) RT and PCR reactions were performed in GeneAmp PCR System 9700 (Applied Biosystems) using reverse transcriptase and Taq DNA Polymerase. Forward and reverse gene specific-primers for various subunits of the 20S proteasome and immunoproteasome were either obtained from the literature or designed through Primer Express Software 2.0 (Applied Biosystems) (Table 4). NMDA receptor subunit primers were also designed (Table 4). NMDA receptor expression was used as a marker of neurodegenerative disease.
(§8) All primers were optimized for annealing temperatures and cycles (Table 5). Gel electrophoresis (2% agarose, 0.01% ethidium bromide) was performed and analyzed using a UV transilluminator (UVP) and GelPro Analyzer Software (Applied Biosystems). Relative band intensity was normalized with β-Actin reference gene.

[8] = test system: 26S proteasome; experiment: Chymotrypsin activity of the 26S proteasome (fluorometric); format: cell-based, human; settings: rotenone 30 nM; morphine 5 μM; control 236±4.8
Description: as §5

[9] = test system: NMDA NR2B Subunit; experiment: NMDA NR2B subunit mRNA expression (RT-PCR); format: cell-based, human
Description: as §6, §7, §8

[10] = test system: Immunoproteasome LMP7 (β5i) Subunit; experiment: LMP7 polypeptide expression (Western blot); format: cell-based, human; settings: IFNγ
Description: as §1, §2, §3, §4

[11] = test system: 20S Proteasome LMP7 Subunit (β5i); experiment: LMP7 immunoproteasome subunit mRNA expression (RT-PCR); format: cell-based, human; settings: IFNγ 20 ng/mL, 24 hours; control 0.29±0.01
Description: as §6, §7, §8

[12] = test system: SK-N-SH neuroblastoma cell line; experiment: Cellular morphology (Form Factor) of neuroblastoma cells; format: cell-based, human; settings: IFNγ treatment; control 0.54±0.02
[13] = test system: Mytilus edulis pedal ganglia; experiment: Ganglionic morphine levels after injection into the foot of intact animals; settings: one hour after injection into the foot
Description: For in vivo precursor injection experiments, the animal's foot was injected with either reticuline or L-DOPA (0.1 and 1 μg/injection, respectively). Chemicals were injected by BD 1 cc syringes with 26 G needles. Each needle was inserted into that base of the foot just above the pedal ganglia.
For in vivo treatments, the animal's foot (20 animals per treatment) was injected with tyrosine (10^−5 M), tyramine (10^−5 M), or saline. Other animals were exposed to the enzyme inhibitors AMPT or quinidine alone or immediately following the respective foot injection. […] All chemicals were purchased from Sigma (St. Louis, Mo.).

[14] = test system: human white blood cells / PMNs; experiment: Morphine production by human WBC and PMNs (HPLC, RIA); format: cell-based
[15] = test system: Mytilus edulis pedal ganglia; experiment: Endogenous morphine levels in excised pedal ganglia incubated in vitro (HPLC, RIA); format: cell-based
[16] = target: mu3 opiate receptor (Mytilus edulis, UniProt A0A8S3SM58); experiment: Displacement of 3H-dihydromorphine, pedal ganglia membrane suspension; format: binding
Chain of mu3 opiate receptor (Mytilus edulis, UniProt A0A8S3SM58) (A0A8S3SM58 1-388): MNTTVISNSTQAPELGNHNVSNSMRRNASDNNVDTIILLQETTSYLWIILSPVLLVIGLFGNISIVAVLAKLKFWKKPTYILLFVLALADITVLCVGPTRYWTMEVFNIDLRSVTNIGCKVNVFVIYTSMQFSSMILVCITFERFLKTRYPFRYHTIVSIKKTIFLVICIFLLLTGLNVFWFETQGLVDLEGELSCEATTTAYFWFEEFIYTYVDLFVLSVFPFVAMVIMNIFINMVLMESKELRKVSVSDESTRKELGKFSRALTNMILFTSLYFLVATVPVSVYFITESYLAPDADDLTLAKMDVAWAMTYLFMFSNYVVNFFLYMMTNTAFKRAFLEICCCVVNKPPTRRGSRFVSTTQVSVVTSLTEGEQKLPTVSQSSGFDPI
Description: An additional 100 excised pedal ganglia and the human monocytes were separately washed and homogenized in 50 volumes of 0.32 M sucrose, pH 7.4, at 4° C. using a Brinkmann polytron (30 seconds, setting no. 5). The crude homogenate was centrifuged at 900×g for 10 minutes at 4° C., and the supernatant was reserved on ice. The whitish crude pellet was resuspended by homogenization (15 seconds, setting no. 5) in 30 volumes of 0.32 M sucrose/Tris-HCl buffer, pH 7.4, and centrifuged at 900×g for 10 minutes. The extraction procedure was repeated one more time, and the combined supernatants were centrifuged at 900×g for 10 minutes. The resulting supernatants (S1′) were used immediately. […] The P2 pellet was then re-suspended with a Dounce hand-held homogenizer (10 strokes) in 100 volumes of buffer. Binding analysis was then performed on the cell membrane suspensions.
Aliquots of membrane suspension (0.2 mL, 0.12 mg of membrane protein) were incubated in triplicate at 22° C. for 40 minutes with the appropriate radiolabeled ligand in the presence of dextrorphan (10 mM) or levorphanol (10 mM) in 10 mM Tris-HCl buffer, pH 7.4, containing 0.1% BSA and 150 mM KCl. […] The filters were rapidly washed with 2.5 mL aliquots of the incubation buffer (4° C.), containing 2% polyethylene glycol 6000 (Baker). […] Protein concentration was determined in membrane suspensions (prepared in the absence of BSA).

[17] = target: T1, mu3 opiate receptor (Homo sapiens, UniProt P35372); experiment: biochemical; format: binding; settings: read-out: Monocytes IC50, displacement of 3H-dihydromorphine; mean +/− S.E.M., three experiments
T1 construct: An additional 100 excised pedal ganglia and the human monocytes were separately washed and homogenized; host or cells: human monocytes
T1 sequence (P35372 1-314 isoform P35372-14): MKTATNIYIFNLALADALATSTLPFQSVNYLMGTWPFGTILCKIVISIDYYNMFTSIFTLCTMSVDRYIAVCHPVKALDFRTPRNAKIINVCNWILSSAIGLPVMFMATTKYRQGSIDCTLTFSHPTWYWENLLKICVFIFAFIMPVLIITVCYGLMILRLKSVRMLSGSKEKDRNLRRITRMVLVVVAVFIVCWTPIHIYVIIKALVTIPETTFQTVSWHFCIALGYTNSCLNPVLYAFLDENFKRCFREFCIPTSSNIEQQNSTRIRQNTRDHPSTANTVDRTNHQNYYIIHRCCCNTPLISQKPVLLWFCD
Description: For the nitric oxide assay, ten pedal ganglia (per determination) dissected from M. edulis were bathed in 1 mL sterile phosphate buffered saline (PBS). […] NO release was monitored with an NO-selective microprobe manufactured by World Precision Instruments (Sarasota, Fla.). The sensor was positioned approximately 100 μm above the respective tissue surface. […] The NO detection system was calibrated daily. The probe was allowed to equilibrate for 10 minutes in the incubation medium free of tissue before being transferred to vials containing the ganglia for another 5 minutes. Manipulation and handling of the ganglia was only performed with glass instruments. Data was acquired using the Apollo-4000 free radical analyzer (World Precision Instruments, Sarasota, Fla.). The experimental values were then transferred to Sigma-Plot and -Stat (Jandel, Calif.) for graphic representation and evaluation. […]
Aliquots of membrane suspension (0.2 mL, 0.12 mg of membrane protein) were incubated in triplicate at 22° C. for 40 minutes with the appropriate radiolabeled ligand in the presence of dextrorphan (10 mM) or levorphanol (10 mM) in 10 mM Tris-HCl buffer, pH 7.4, containing 0.1% BSA and 150 mM KCl. […] Protein concentration was determined in membrane suspensions (prepared in the absence of BSA).

[18] = test system: NCI-H295R cells; experiment: Morphine production by NCI-H295R cells (RIA); format: cell-based, human; settings: one half million cells, 100 ng of reticuline, 24 hours; control about 9.6±3.5
Description: Human cells (NCI-H295R) were adapted from the NCI-H295 pluripotent adrenocortical carcinoma cell line (ATCC CRL-10296), which is from a carcinoma of the adrenal cortex. The original cells were adapted to a culture medium that decreased the population doubling time from 5 days to 2 days. While the original cells grew in suspension, the adapted cells were selected to grow in a monolayer. These cells retained the ability to produce adrenal androgens and were responsive to angiotensin II and potassium ions. To propagate these cells, the culture medium was a 1:1 mixture of Dulbecco's modified Eagle's medium and Ham's F12 medium containing 15 mM HEPES, 0.00625 mg/mL insulin, 0.00625 mg/mL transferrin, 6.25 ng/mL selenium, 1.25 mg/mL bovine serum albumin, and 0.00535 mg/mL linoleic acid, 97.5%; Nu-Serum I, 2.5%. See, e.g., Rainey et al., Mol. Cell. Endocrinol., 100:45-50 (1994); Gazdar et al., Cancer Res., 50:5488-5496 (1990); and Bird et al., Endocrinology, 133:1555-1561 (1993)).
The cells were subcultured in 6 well cell culture cluster (Corning Inc.) 24 hours before the experiment. The amount of cells was determined by Microscope (Nickon inc). Various amounts of reticuline were added to the cells, and the cells were cultured with an NAPCO incubator. The incubation was terminated after 24 hours by adding 10 NHCl.

[19] = test system: pedal ganglia; experiment: NO release from excised pedal ganglia (NO-selective microprobe); format: cell-based, Mytilus edulis
Description: For the nitric oxide assay, ten pedal ganglia (per determination) dissected from M. edulis were bathed in 1 mL sterile phosphate buffered saline (PBS). […] For the opiate receptor antagonist experiments, ganglia were pretreated with naloxone for 10 minutes prior to reticuline addition. NO release was monitored with an NO-selective microprobe manufactured by World Precision Instruments (Sarasota, Fla.). The sensor was positioned approximately 100 μm above the respective tissue surface. […] The NO detection system was calibrated daily. The probe was allowed to equilibrate for 10 minutes in the incubation medium free of tissue before being transferred to vials containing the ganglia for another 5 minutes. Manipulation and handling of the ganglia was only performed with glass instruments. Data was acquired using the Apollo-4000 free radical analyzer (World Precision Instruments, Sarasota, Fla.). The experimental values were then transferred to Sigma-Plot and -Stat (Jandel, Calif.) for graphic representation and evaluation.

## Aβ1-42: β-amyloid peptide (Aβ) 1-42
[1]
  M6G-induced NO release after Aβ1-42 pre-treatment: dose-dependent decrease in NO release

## CTOP
[2]
  morphine-induced NO release after CTOP pre-treatment: no NO release was detected
[3]
  effect of CTOP on M6G-induced mu3 expression: blocked by CTOP pre-treatment

## C=C(C)[C@H]1Cc2c(ccc3c2O[C@@H]2COc4cc(OC)c(OC)cc4[C@@H]2C3=O)O1 [Rotenone]
[4]; human
  LD50, cellular death of neuroblastoma cells: 30 nM
[4]; rotenone 30 nM, 48-hour incubation
  confluency: about 45%
[5]
  X subunit protein band intensity: 182 AU
[6]
  20S proteasome activity: Significant increase in activity of the 20S proteasome
[7]; rotenone 30 nM (LD50), control 1.57±0.072
  NR1 expression: 1.22±0.010 AU
[7]; rotenone 40 nM
  NR1 expression: 1.21±0.028 AU
[8]
  activity of the chymotrypsin functional 26S active site: 221 ± 4.8 pM
[9]; rotenone 30 nM (LD50), control 0.98±0.02
  NR2B expression: 1.22±0.08 AU
[9]; rotenone 40 nM
  NR2B expression: 1.49±0.02 AU

## IFNγ: interferon used to simulate an immune response
[10]
  LMP7 polypeptide expression: caused an increase in LMP7 polypeptide expression
[11]
  LMP7 mRNA expression: 0.93±0.06
[12]
  Form Factor (FF): 0.76±0.02

## COc1ccc(C[C@H]2c3cc(O)c(OC)cc3CCN2C)cc1O [Reticuline, reticuline]
[13]
  pedal ganglionic morphine levels after injection: significantly increased pedal ganglionic morphine levels
[14]; P<0.001
  WBC morphine concentrations versus untreated cells: significantly increased WBC morphine concentrations
[14]; PMNs 3×10^6 cells, THP 100 μg, reticuline 50 μg, L-DOPA 100 μg, L-tyrosine 100 μg
  Morphine levels in media after the cells were removed: 2.112 ± 0.33
[14]; one-hour treatment, control 12.33±5.64
  morphine concentrations in WBC: 136.04±8.71 pg/million cells
[15]; 50 ng of reticuline, 1 hour, control 1.43±0.41
  endogenous morphine level in ganglia (HPLC): 6.7±0.7 ng/mg tissue wet weight
[15]; 50 ng of reticuline, mantle tissues
  morphine production in mantle tissues: did not produce detectable morphine
[15]; 100 ng of reticuline
  morphine per mg ganglion: about 5.0±0.47 ng morphine per mg ganglion
[15]; 100 ng of reticuline, one hour, control 1.33±0.61
  ganglionic morphine level (RIA): about 14.53±4.6 ng/mg
[15]; 0.5 μg of reticuline, 1 hour
  ganglionic morphine level (HPLC, FIG. 1 legend): 5 ng/mg morphine tissue wet weight
[15]; 10^−6 M (FIG. 20)
  ganglionic morphine levels after exposure: significantly enhanced morphine levels
[15]; 50 and 100 ng, 60 minutes, in vitro
  ganglionic morphine levels versus control: significantly higher
[16]
  affinity for the mu3 opiate receptor: does not exhibit an affinity
[16]; read-out: Pedal Ganglia IC50, displacement of 3H-dihydromorphine, mean +/− S.E.M., three experiments
  IC50: > 1 µM
[17]
  IC50: > 1 µM
[18]
  morphine produced by cells: about 28±5.4 ng
[19]; ligand 10^−7 M
  NO Peak Level: 17.6 ± 3.8 nM
  NO Peak Time: 9.2 ± 1.5 min
[19]; reticuline 10^−7 M
  delay before ganglionic NO release: three-minute delay
[19]; reticuline 10^−7 M, morphine 10^−6 M
  duration of ganglionic NO release: 17 min
